This passage reports solubility results from US10981940B2, “Trityl protecting agent” (SEKISUI MEDICAL CO., LTD., priority 2016, dated 2021).

In brackets after ≈: the same amount, converted by molar mass. Where a SMILES comes first, the peptide text is derived from it.

This series in a line: Solubility in CPME (cyclopentyl methyl ether), dissolved to saturation at 25° C. Conditions: dissolved to saturation in CPME (cyclopentyl methyl ether) at 25° C. The series is classed as physicochemical. The procedure: Peptide used as a model: H-Phe-Leu-Gly-OH
H-Phe-Leu-Gly-OH and H-Phe-Leu-Gly-O-(TIPS2-4,4′-diClTrt) were synthesized, and the respective compounds were dissolved to saturation in CPME (cyclopentyl methyl ether) at 25° C. Thus, the solubilities were measured.

`CC(C)C[C@H](NC(=O)[C@@H](N)Cc1ccccc1)C(=O)NCC(=O)OC(c1ccc(Cl)cc1)(c1ccc(Cl)cc1)c1cc(OCCCCCCCCCCCO[Si](C(C)C)(C(C)C)C(C)C)cc(OCCCCCCCCCCCO[Si](C(C)C)(C(C)C)C(C)C)c1` [H-Phe-Leu-Gly-O-(TIPS2-4,4′-diClTrt)]: the solubility was at least 1030 mM. To `CC(C)C[C@H](NC(=O)[C@@H](N)Cc1ccccc1)C(=O)NCC(=O)O` [H-Phe-Leu-Gly-OH] (H-Phe-Leu-Gly-OH) belongs 0.9 mM (≈ 0.302 mg/mL).

What is called solubility is the dissolved amount per volume that the medium holds. High values mean much dissolved substance, low ones little dissolved substance.
